Source: the NIST ThermoML archive (doi:10.1007/s10765-007-0223-x)

Test: xn = mol fraction of the nth substance listed
Conditions: 101 kPa, Liquid; for speed of sound: Single path-length method

COC(C)(C)C [2-methoxy-2-methylpropane] + CC(C)(C)O
Conditions	mass density [kg/m3]	speed of sound [m/s]
301.65 K, x1 = 0.049	775.452	1105.4
301.65 K, x1 = 0.1	772.914	1100.7
301.65 K, x1 = 0.215	767.025	1089.3
301.65 K, x1 = 0.314	761.986	1079.7
301.65 K, x1 = 0.4	757.94	1072
301.65 K, x1 = 0.498	753.459	1063.6
301.65 K, x1 = 0.597	749.177	1055.5
301.65 K, x1 = 0.707	744.495	1047.6
301.65 K, x1 = 0.799	740.646	1040.8
301.65 K, x1 = 0.9	736.522	1033.1
301.65 K, x1 = 0.951	734.553	1028.8
301.65 K, x1 = 1	732.643	1024.3
303.15 K, x1 = 0.049	772.916	1094.7
303.15 K, x1 = 0.1	770.395	1090.2
303.15 K, x1 = 0.215	764.529	1079.1
303.15 K, x1 = 0.314	759.479	1069.7
303.15 K, x1 = 0.4	755.424	1061.9
303.15 K, x1 = 0.498	750.928	1053.1
303.15 K, x1 = 0.597	746.615	1045
303.15 K, x1 = 0.707	741.905	1036.7
303.15 K, x1 = 0.799	738.033	1029.9
303.15 K, x1 = 0.9	733.889	1021.9
303.15 K, x1 = 0.951	731.913	1017.6
303.15 K, x1 = 1	729.99	1012.8
305.65 K, x1 = 0.049	770.344	1084
305.65 K, x1 = 0.1	767.841	1079.7
305.65 K, x1 = 0.215	762.002	1068.7
305.65 K, x1 = 0.314	756.946	1059.4
305.65 K, x1 = 0.4	752.889	1051.7
305.65 K, x1 = 0.498	748.373	1042.6
305.65 K, x1 = 0.597	744.023	1034.3
305.65 K, x1 = 0.707	739.304	1025.9
305.65 K, x1 = 0.799	735.393	1018.7
305.65 K, x1 = 0.9	731.231	1010.6
305.65 K, x1 = 0.951	729.253	1006.3
305.65 K, x1 = 1	727.325	1001.4
308.15 K, x1 = 0.049	767.747	1073.2
308.15 K, x1 = 0.1	765.265	1069.1
308.15 K, x1 = 0.215	759.448	1058.2
308.15 K, x1 = 0.314	754.398	1049.1
308.15 K, x1 = 0.4	750.325	1041.2
308.15 K, x1 = 0.498	745.794	1032
308.15 K, x1 = 0.597	741.414	1023.5
308.15 K, x1 = 0.707	736.686	1015.2
308.15 K, x1 = 0.799	732.737	1007.6
308.15 K, x1 = 0.9	728.559	999.39
308.15 K, x1 = 0.951	726.577	994.94
308.15 K, x1 = 1	724.645	989.9
310.65 K, x1 = 0.049	765.13	1062.6
310.65 K, x1 = 0.1	762.685	1058.9
310.65 K, x1 = 0.215	756.88	1047.9
310.65 K, x1 = 0.314	751.817	1038.6
310.65 K, x1 = 0.4	747.731	1030.6
310.65 K, x1 = 0.498	743.186	1021.4
310.65 K, x1 = 0.597	738.784	1012.8
310.65 K, x1 = 0.707	734.036	1004.3
310.65 K, x1 = 0.799	730.062	996.52
310.65 K, x1 = 0.9	725.873	988.12
310.65 K, x1 = 0.951	723.884	983.57
310.65 K, x1 = 1	721.953	978.47
313.15 K, x1 = 0.049	762.492	1052
313.15 K, x1 = 0.1	760.064	1048.4
313.15 K, x1 = 0.215	754.27	1037.4
313.15 K, x1 = 0.314	749.212	1028.2
313.15 K, x1 = 0.4	745.126	1020.2
313.15 K, x1 = 0.498	740.567	1010.9
313.15 K, x1 = 0.597	736.13	1002
313.15 K, x1 = 0.707	731.36	993.34
313.15 K, x1 = 0.799	727.372	985.44
313.15 K, x1 = 0.9	723.168	976.81
313.15 K, x1 = 0.951	721.205	972.48
313.15 K, x1 = 1	719.245	967.03
315.65 K, x1 = 0.049	759.831	1041.5
315.65 K, x1 = 0.1	757.407	1037.8
315.65 K, x1 = 0.215	751.633	1026.8
315.65 K, x1 = 0.314	746.577	1017.7
315.65 K, x1 = 0.4	742.483	1009.7
315.65 K, x1 = 0.498	737.91	1000.2
315.65 K, x1 = 0.597	733.459	991.47
315.65 K, x1 = 0.707	728.662	982.37
315.65 K, x1 = 0.799	724.66	974.33
315.65 K, x1 = 0.9	720.449	965.56
315.65 K, x1 = 0.951	718.495	961.27
315.65 K, x1 = 1	716.525	955.73
318.15 K, x1 = 0.049	757.138	1031
318.15 K, x1 = 0.1	754.729	1027.3
318.15 K, x1 = 0.215	748.972	1016.3
318.15 K, x1 = 0.314	743.917	1007.1
318.15 K, x1 = 0.4	739.814	999.06
318.15 K, x1 = 0.498	735.227	989.54
318.15 K, x1 = 0.597	730.762	980.67
318.15 K, x1 = 0.707	725.943	971.38
318.15 K, x1 = 0.799	721.933	963.24
318.15 K, x1 = 0.9	717.738	954.55
318.15 K, x1 = 0.951	715.752	949.91
318.15 K, x1 = 1	713.786	944.34
320.65 K, x1 = 0.049	754.421	1020.5
320.65 K, x1 = 0.1	752.024	1016.8
320.65 K, x1 = 0.215	746.283	1005.9
320.65 K, x1 = 0.314	741.23	996.62
320.65 K, x1 = 0.4	737.119	988.47
320.65 K, x1 = 0.498	732.517	978.82
320.65 K, x1 = 0.597	728.042	969.8
320.65 K, x1 = 0.707	723.201	960.4
320.65 K, x1 = 0.799	719.199	952.31
320.65 K, x1 = 0.9	714.978	943.3
320.65 K, x1 = 0.951	712.991	938.58
320.65 K, x1 = 1	711.028	933.01
323.15 K, x1 = 0.049	751.68	1010
323.15 K, x1 = 0.1	749.295	1006.3
323.15 K, x1 = 0.215	743.567	995.37
323.15 K, x1 = 0.314	738.52	986.19
323.15 K, x1 = 0.4	734.4	977.86
323.15 K, x1 = 0.498	729.786	968.08
323.15 K, x1 = 0.597	725.316	958.97
323.15 K, x1 = 0.707	720.436	949.42
323.15 K, x1 = 0.799	716.426	941.22
323.15 K, x1 = 0.9	712.195	931.99
323.15 K, x1 = 0.951	710.215	927.25
323.15 K, x1 = 1	708.28	921.93
